Measured values published in patent publication US9708359B2, “Pyrrolopyrimidine nucleosides and analogs thereof” (Chimerix, Inc., priority 2015, dated 2017).
≈ marks a conversion by molar mass, not a printed value.

Assays:
[1] = tested on: ENTV-71; assay: microbe, parasite or virus in culture; format: cell-based; details: Enterovirus, Vero 76; ENTV-71, Vero76 cells
[2] = tested on: HSV-2; assay: Plaque-reduction assay for HSV-2; format: cell-based, herpes simplex virus 2; details: Human alphaherpesvirus 2; HSV-2, HFF cells
Method: (§1) Plaque-Reduction Assays for HSV-1, HSV-2, VZV and HCMV:
(§2) Monolayers of cells were prepared in six-well plates and incubated at to allow the cells to reach confluency. Media was then aspirated from the wells and of virus was added to each of three wells to yield 20-30 plaques in each well. The virus was allowed to adsorb to the cells for 1 h and the plates were rocked gently every 15 min to redistribute the media. Compounds were diluted in maintenance cell culture media consisting of MEM with Earl's salts supplemented with 2% FBS, L-glutamine, penicillin, and gentamycin. Solutions were added to duplicate wells and the plates were incubated for various times, depending on the virus used. The plaque-reduction assay with HSV-1 strain F was performed in a similar manner but with Vero cells infected one day after plating. For HSV-1 and -2, the monolayers were stained with 1% crystal violet in 20% methanol and the unbound dye removed by washing with dH2O. For assays with HCMV and VZV, the cell monolayer was stained with 1% Neutral Red solution for 4 h then the stain was aspirated and the cells were washed with PBS. For all assays, plaques were enumerated using a stereomicroscope and the concentration of compound that reduced plaque formation by 50% (EC50) was interpolated from the experimental data. […]

[3] = tested on: VZV; assay: Plaque-reduction assay for VZV; format: cell-based, varicella zoster virus; details: Human alphaherpesvirus 3, HFF cells
Method: as §1, §2

[4] = Solubility in water (rework study); format: physicochemical
Method: A brief rework study for compound 1, (containing 1.6% benzoic acid per AUC, HPLC) was executed in 10 vol of water (1 g in 10 mL):
All three experiments gave compound 1 with less than 0.1% benzoic acid (UAC, HPLC). The slurries were fluid, were easily stirred and filtration was fast. […] Without wishing to be bound by theory, a loss of NMT than 1% is expected (solubility 1 mg/mL). HPLC data for compound 1 were obtained with a method suitable for polar compounds using a Zorbax Eclipse Plus C18 column (water/ACN/TFA, 97.5/2.5/0.05). This is the same column used for steps 1 and 2.

[5] = tested on: Flu (H1N1); assay: microbe, parasite or virus in culture; format: cell-based; details: Influenza A virus, MDCK cells
[6] = tested on: MCMV; assay: Plaque-reduction assay for MCMV; format: cell-based; details: MEF
Method: Plaque-Reduction Assays for MCMV:
Mouse embryo fibroblast cells were prepared from mouse embryos using a procedure similar to that outlined above for HFF cells and suspended in tissue culture media as described above and seeded into plates and incubated. The medium was aspirated and the cell monolayers were infected with MCMV. The infected cells were then incubated at 37° C. for 1 h and the plates were rocked occasionally to ensure that the media covered the entire monolayer. Compounds were serially diluted in tissue maintenance cell culture media described above and the solutions were added to the infected monolayers. Infected monolayers were incubated for 7 d and then stained with Neutral Red solution as described above. Plaques were enumerated and EC50 values were interpolated from the experimental data by standard methods.
Mouse embryo fibroblast cells were prepared from mouse embryos using a procedure similar to that outlined above for HFF cells and suspended in tissue culture media as described above and seeded into 12 well plates and incubated at 37° C. for 24 h. The medium was aspirated and the cell monolayers were infected with the Smith strain of MCMV in a final volume of 0.2 mL in each of triplicate wells. The infected cells were then incubated at 37° C. for 1 h and the plates were rocked occasionally to ensure that the media covered the entire monolayer. […]

Cc1nc(N)c2c(C(N)=O)cn([C@@H]3O[C@H](CO)[C@@H](O)[C@H]3O)c2n1 [Compound 1, 4-amino-7-((2R,3R,4S,5R)-3,4-dihydroxy-5-(hydroxymethyl)tetrahydrofuran-2-yl)-2-methyl-7H-pyrrolo[2,3-d]pyrimidine-5-carboxamide]
EC50 [1]: > 100 µM | EC50 [2]: > 60 µM | EC50 [3]: > 60 µM | solubility [4]: 1 mg/mL (≈ 3.09 mM) | EC50 [5]: > 100 µM | EC50 [6]: > 100 µM
